Consider 19 compounds from patent publication US8987314B2, “Amide, urea or sulfone amide linked benzothiazole inhibitors of endothelial lipase” (Bristol-Myers Squibb Company, priority 2012, dated 2015).

Read-outs that look alike come from different tables or passages of the source.

The target in assay [1] is hepatic lipase (HL) (Homo sapiens (Human), UniProt P11150). Put plainly: HL assay: hepatic lipase activity with fluorescent substrate A10070 in DMPG vesicles. Type of assay: biochemical. The method in brief: (§1)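 Vesicles prepared: A10070 dried with DMPG, resuspended in HEPES pH 8.0/NaCl/EDTA, sonicated on ice. Enzyme incubated with compound 30 min at 37° C. Reaction started with 1:10 diluted vesicles. Fluorescence (490/530 nm) followed 60 min; slope from 300–900 secs gives rate.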

Assay [2] addresses Endothelial lipase (EL) (Homo sapiens (Human), UniProt Q9Y5X9). As to the kind of experiment: EL assay: endothelial lipase activity with fluorescent substrate A10070 in DMPG vesicles. The class given is biochemical. The method in brief: as §1
[3] abbreviates: HL partially purified from conditioned media of COS cells, 30 min incubation with compound at 37° C., A10070/DMPG vesicles.
Setting [4] is: EL from conditioned media of HT-1080 cells, 30 min incubation with compound at 37° C., A10070/DMPG vesicles.

Chain of Endothelial lipase (EL) (Q9Y5X9 21-500): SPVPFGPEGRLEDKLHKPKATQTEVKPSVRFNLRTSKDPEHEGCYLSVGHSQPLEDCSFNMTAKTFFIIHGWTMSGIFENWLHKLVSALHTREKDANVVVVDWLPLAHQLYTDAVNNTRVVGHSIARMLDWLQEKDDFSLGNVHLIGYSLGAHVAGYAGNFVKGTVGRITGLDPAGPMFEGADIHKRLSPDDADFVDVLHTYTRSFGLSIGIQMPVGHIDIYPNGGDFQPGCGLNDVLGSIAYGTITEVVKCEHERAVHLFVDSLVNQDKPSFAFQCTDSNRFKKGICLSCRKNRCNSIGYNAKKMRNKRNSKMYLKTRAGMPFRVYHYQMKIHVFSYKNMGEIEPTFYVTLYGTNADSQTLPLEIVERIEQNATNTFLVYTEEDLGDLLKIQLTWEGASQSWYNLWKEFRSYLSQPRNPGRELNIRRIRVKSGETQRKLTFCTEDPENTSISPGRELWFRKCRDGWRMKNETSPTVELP
Chain of hepatic lipase (HL) (P11150 23-499, species assumed): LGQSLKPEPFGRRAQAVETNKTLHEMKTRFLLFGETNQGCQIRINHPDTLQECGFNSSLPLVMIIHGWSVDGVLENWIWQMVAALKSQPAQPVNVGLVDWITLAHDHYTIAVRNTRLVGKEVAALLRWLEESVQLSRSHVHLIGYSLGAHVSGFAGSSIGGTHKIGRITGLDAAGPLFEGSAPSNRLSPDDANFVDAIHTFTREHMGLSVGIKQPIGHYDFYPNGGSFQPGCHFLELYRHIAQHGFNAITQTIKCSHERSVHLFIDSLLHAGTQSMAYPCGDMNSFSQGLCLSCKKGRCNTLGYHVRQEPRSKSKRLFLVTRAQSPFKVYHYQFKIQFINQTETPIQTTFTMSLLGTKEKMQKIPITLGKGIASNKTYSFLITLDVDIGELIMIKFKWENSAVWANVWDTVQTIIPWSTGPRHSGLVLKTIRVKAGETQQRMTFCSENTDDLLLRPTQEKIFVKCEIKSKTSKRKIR

Take `NS(=O)(=O)CCNC(=O)C(c1nc2cc(F)c(-c3ccccc3)cc2s1)S(=O)(=O)CCC(F)(F)F` (centres unmarked) [Example B136, 2-(5-fluoro-6-phenyl-1,3-benzothiazol-2-yl)-N-(2-sulfamoylethyl)-2-[(3,3,3-trifluoropropyl)sulfonyl]a-cetamide]: the 50% inhibitory concentration (IC50) in assay [1] was 11 nM; in assay [2] it was less than 10 nM.
As for `COC(=O)CCS(=O)(=O)C(C(=O)NCc1nnc(C)o1)c1nc2ccc(-c3ccccc3)cc2s1` (centres unmarked) [Example B205, methyl 3-({[(5-methyl-1,3,4-oxadiazol-2-yl)meth-yl]carbamoyl}(6-phenyl-1,3-benzothiazol-2-yl)methanesulfonyl)pro-panoate], the IC50 in assay [1] was 101 nM; in assay [2] it was 205 nM.
Turning to `NS(=O)(=O)CCNC(=O)C(c1nc2ccc(-c3ccc(C(=O)N4CCOCC4)cc3)cc2s1)S(=O)(=O)CCC(F)(F)F` (centres unmarked) [Example B108, 2-(6-(4-(4-morpholinyl-carbonyl)phenyl)-1,3-benzothiazol-2-yl)-N-(2-sulfamoylethyl)-2-((3,3,3-trifluoropropyl)sul-fonyl)acetamide], the results for the IC50 in assay [1] and in assay [2] were 23 nM and less than 10 nM, respectively.
With `NS(=O)(=O)CCNC(=O)C(c1nc2ccc(-c3cccc(Cl)c3)cc2s1)S(=O)(=O)Cc1ccc(F)cc1` (centres unmarked) [Example B243, 2-[6-(3-chlorophenyl)-1,3-benzothiazol-2-yl]-2-[(4-fluorophenyl)methanesulfon-yl]-N-(2-sulfamoylethyl)a-cetamide], the figures for the IC50 in assay [1] and in assay [2] were 2.4 nM and 4.8 nM, respectively.
Consider `CS(=O)(=O)C(C(=O)NCCS(N)(=O)=O)c1nc2ccc(-c3ccc4c(c3)CC(=O)N4)cc2s1` (centres unmarked) [Example B180, 2-(Methylsulfonyl)-2-(6-(2-oxo-2,3-dihydro-1H-indol-5-yl)-1,3-benzothiazol-2-yl)-N-(2-sulfamoylethyl)acetamide], for which the 50% inhibitory concentration (IC50) is 170 nM in assay [1] (setting [3]) and less than 10 nM in assay [2] (setting [4]).
For the compound `NC(=O)c1ccc(-c2ccc3nc(C(C(=O)NCCS(N)(=O)=O)S(=O)(=O)CCC(F)(F)F)sc3c2)cc1` (centres unmarked) [Example B228, 4-(2-{[(2-sulfamoylethyl)car-bamoyl](3,3,3-trifluoro-propanesulfonyl)methyl}-1,3-benzothiazol-6-yl)ben-zamide], the half-maximal inhibitory concentration (IC50) was found to be 250 nM in assay [1] and 9.2 nM in assay [2].
For `COCCS(=O)(=O)C(C(=O)NCCS(N)(=O)=O)c1nc2ccc(-c3ccc(C(=O)N4CCC(F)(F)C4)cc3)cc2s1` (centres unmarked) [Example B168, 2-(6-(4-((3,3-difluoro-1-pyrrolidinyl)carbonyl)phen-yl)-1,3-benzothiazol-2-yl)-2-((2-methoxyethyl)sul-fonyl)-N-(2-sulfamoyl-ethyl)acetamide] the same measures were 60 nM and less than 10 nM.
Regarding `NS(=O)(=O)CCNC(=O)C(c1nc2c(F)cc(-c3ccccc3)cc2s1)S(=O)(=O)Cc1ccccc1` (centres unmarked) [Example B133, 2-(benzylsulfonyl)-2-(4-fluoro-6-phenyl-1,3-benzothiazol-2-yl)-N-(2-sulfamoylethyl)acetamide], the half-maximal inhibitory concentration (IC50) in assay [1] is 22 nM; in assay [2] it was less than 10 nM.
Consider `COCCS(=O)(=O)C(C(=O)NCCS(N)(=O)=O)c1nc2ccc(-c3cncnc3)cc2s1` (centres unmarked) [Example B141, 2-((2-methoxyethyl)sul-fonyl)-2-(6-(5-pyrimidinyl)-1,3-benzothiazol-2-yl)-N-(2-sulfamoylethyl)acetamide], for which the figures for the IC50 in assay [1] and in assay [2] were 2210 nM and 14.7 nM, respectively.
Take `CS(=O)(=O)C(C(=O)NCCS(N)(=O)=O)c1nc2ccc(-c3cnn(CCC(F)(F)F)c3)cc2s1` (centres unmarked) [Example B221, 2-methanesulfonyl-N-(2-sulfamoylethyl)-2-{6-[1-(3,3,3-trifluoropropyl)-1H-pyrazol-4-yl]-1,3-benzothiazol-2-yl}acetamide]: the IC50 in assay [1] is 308 nM; in assay [2], 78.1 nM.
Turning to `CC(C)Oc1ccc(-c2ccc3nc(C(C(=O)NCCS(N)(=O)=O)S(C)(=O)=O)sc3c2)cc1Cl` (centres unmarked) [Example B217, 2-{6-[3-chloro-4-(propan-2-yloxy)phenyl]-1,3-benzothiazol-2-yl}-2-methanesulfonyl-N-(2-sulfamoylethyl)acetamide], the IC50 stood at 3.6 nM in assay [1] and 2.3 nM in assay [2].
For `COc1cc(-c2ccc3nc(C(C(=O)NCCS(N)(=O)=O)S(=O)(=O)CCC(F)(F)F)sc3c2)ccn1` (centres unmarked) [Example B144, 2-(6-(2-methoxy-4-pyridinyl)-1,3-benzothiazol-2-yl)-N-(2-sulfamoylethyl)-2-((3,3,3-trifluoropropyl)sulfonyl)a-cetamide] the same measures were 33 nM and less than 10 nM.
In the case of `CC(C)(O)CNC(=O)c1ccc(-c2ccc3nc(C(C(=O)NCCS(N)(=O)=O)S(=O)(=O)Cc4ccc(F)cc4)sc3c2)cc1` (centres unmarked) [Example B242, 4-{2-[(4-fluorophenyl)meth-anesulfonyl[(2-sulfa-moylethyl)carbamoyl]meth-yl]-1,3-benzothiazol-6-yl}-N-(2-hydroxy-2-methylpropyl)benzamide], the values for the IC50 in assay [1] and in assay [2] were 109 nM and 2.7 nM, respectively.
With `COCc1ccc(-c2ccc3sc(C(C(=O)NCCS(N)(=O)=O)S(C)(=O)=O)nc3c2)cc1` (centres unmarked) [Example B378, 2-methanesulfonyl-2-{5-[4-(methoxymethyl)phen-yl]-1,3-benzothiazol-2-yl}-N-(2-sulfamoylethyl)acetamide], the IC50 was found to be 6.7 nM in assay [1] and 0.7 nM in assay [2].
Turning to `CC(C)(C)NC(=O)c1ccc(-c2ccc3nc(C(C(=O)NCCS(N)(=O)=O)S(C)(=O)=O)sc3c2)cc1` (centres unmarked) [Example B31, N-tert-Butyl-4-(2-(1-(methylsulfonyl)-2-oxo-2-((2-sulfamoylethyl)amino)ethyl)-1,3-benzothiazol-6-yl)benzamide], the IC50 in assay [1] (setting [3]) is 257 nM; in assay [2] (setting [4]), less than 10 nM.
Regarding `Cn1cc(-c2ccc3nc(C(C(=O)NCCS(N)(=O)=O)S(=O)(=O)Cc4ccc(C(F)(F)F)cc4)sc3c2)ccc1=O` (centres unmarked) [Example B361], the IC50 in assay [1] was 1230 nM; in assay [2], 121 nM.
Take `NS(=O)(=O)CCNC(=O)C(c1nc2ccc(Br)cc2s1)S(=O)(=O)CCC(F)(F)F` (centres unmarked) [Example B125, 2-(6-bromo-1,3-benzothiazol-2-yl)-N-(2-sulfamoylethyl)-2-((3,3,3-trifluoropropyl)sulfonyl)a-cetamide]: the IC50 in assay [1] came to 300 nM; in assay [2] it was 99 nM.
With `NS(=O)(=O)CCNC(=O)C(c1nc2ccc(-c3ccc(C(=O)N4CCCCC4)cc3)cc2s1)S(=O)(=O)Cc1ccccc1` (centres unmarked) [Example B351, 2-phenylmethanesulfonyl-2-{6-[4-(piperidine-1-carbonyl)phenyl]-1,3-benzothiazol-2-yl}-N-(2-sulfamoylethyl)acetamide], the half-inhibitory concentration (IC50) came to 14.9 nM in assay [1] and 6.2 nM in assay [2].
With `CO[C@H]1CCN(C(=O)c2ccc(-c3ccc4nc(C(C(=O)NCCS(N)(=O)=O)S(=O)(=O)CCC(F)(F)F)sc4c3)cc2)C1` (stereo partly drawn) [Example B304, 2-(6-{4-[(3S)-3-methoxy-pyrrolidine-1-carbonyl]phen-yl}-1,3-benzothiazol-2-yl)-N-(2-sulfamoyl-ethyl)-2-(3,3,3-trifluoro-propanesulfonyl)acetamide], the concentration for half-maximal inhibition (IC50) was 16.6 nM in assay [1] and 0.7 nM in assay [2].
